{"source": "patent US10336732B2", "about": "“1-heterocyclyl isochromanyl compounds and analogs for treating CNS disorders” (Sunovion Pharmaceuticals Inc., priority 2015, dated 2019)"}
{"test_system": "mice", "assay": "Neuropharmacological assay (SmartCube), behavioral signature of compound-treated mice", "format": "in vivo", "conditions": "i.p. 15 min before behavioral test, most efficacious dose(s) of 3 doses", "procedure,_shortened": "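Mice received compound i.p. in NMP/PEG/propylene glycol vehicle at 3 doses, 15 min before testing. Video-captured behavior was algorithmically compared with a reference-drug signature database.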"}
{"smiles": "Fc1ccc2c(c1)CCO[C@H]2[C@@H]1CCCN1", "note": "[Compound I-9, (S)-2-((R)-6-fluoroisochroman-1-yl)pyrrolidine]", "AD: ADHD (probability that behavioral signature matches class)": "+ (LOQ ≤ + <5%)", "AG: analgesic (probability that behavioral signature matches class)": "++ (5% ≤ ++ <25%)", "AX: anxiolytic (probability that behavioral signature matches class)": "++ (5% ≤ ++ <25%)", "CE: cognitive enhancer (probability that behavioral signature matches class)": "++ (5% ≤ ++ <25%)", "DP: anti-depressant (probability that behavioral signature matches class)": "++ (5% ≤ ++ <25%)", "HA: hallucinogen (probability that behavioral signature matches class)": "+ (LOQ ≤ + <5%)", "MS: mood stabilizer (probability that behavioral signature matches class)": "++ (5% ≤ ++ <25%)", "PS: anti-psychotic (probability that behavioral signature matches class)": "+++ (25% ≤ +++ <50%)", "SD: sedative hypnotic (probability that behavioral signature matches class)": "++ (5% ≤ ++ <25%)", "UN: uncharacterized CNS activity (probability that behavioral signature matches class)": "+++ (25% ≤ +++ <50%)", "XG: anxiogenic (probability that behavioral signature matches class)": "+ (LOQ ≤ + <5%)"}
{"smiles": "Clc1ccc2c(c1)[C@H]([C@@H]1CCCN1)OCC2", "note": "[Compound I-29, (S)-2-((R)-7-chloroisochroman-1-yl)pyrrolidine]", "AD: ADHD (probability that behavioral signature matches class)": "+ (LOQ ≤ + <5%)", "AG: analgesic (probability that behavioral signature matches class)": "++ (5% ≤ ++ <25%)", "AX: anxiolytic (probability that behavioral signature matches class)": "+++ (25% ≤ +++ <50%)", "CE: cognitive enhancer (probability that behavioral signature matches class)": "+++ (25% ≤ +++ <50%)", "DP: anti-depressant (probability that behavioral signature matches class)": "++ (5% ≤ ++ <25%)", "HA: hallucinogen (probability that behavioral signature matches class)": "+ (LOQ ≤ + <5%)", "MS: mood stabilizer (probability that behavioral signature matches class)": "++ (5% ≤ ++ <25%)", "PS: anti-psychotic (probability that behavioral signature matches class)": "++ (5% ≤ ++ <25%)", "SD: sedative hypnotic (probability that behavioral signature matches class)": "+ (LOQ ≤ + <5%)", "UN: uncharacterized CNS activity (probability that behavioral signature matches class)": "++ (5% ≤ ++ <25%)", "XG: anxiogenic (probability that behavioral signature matches class)": "+ (LOQ ≤ + <5%)"}
{"smiles": "Fc1cccc2c1[C@H]([C@@H]1CCCN1)OCC2", "note": "[Compound I-1, (S)-2-((R)-8-fluoroisochroman-1-yl)pyrrolidine]", "AD: ADHD (probability that behavioral signature matches class)": "+ (LOQ ≤ + <5%)", "AG: analgesic (probability that behavioral signature matches class)": "++ (5% ≤ ++ <25%)", "AX: anxiolytic (probability that behavioral signature matches class)": "++ (5% ≤ ++ <25%)", "CE: cognitive enhancer (probability that behavioral signature matches class)": "++ (5% ≤ ++ <25%)", "DP: anti-depressant (probability that behavioral signature matches class)": "++ (5% ≤ ++ <25%)", "HA: hallucinogen (probability that behavioral signature matches class)": "+ (LOQ ≤ + <5%)", "MS: mood stabilizer (probability that behavioral signature matches class)": "++ (5% ≤ ++ <25%)", "PS: anti-psychotic (probability that behavioral signature matches class)": "+++ (25% ≤ +++ <50%)", "SD: sedative hypnotic (probability that behavioral signature matches class)": "++ (5% ≤ ++ <25%)", "UN: uncharacterized CNS activity (probability that behavioral signature matches class)": "++ (5% ≤ ++ <25%)", "XG: anxiogenic (probability that behavioral signature matches class)": "+ (LOQ ≤ + <5%)"}
{"smiles": "Fc1ccc2c(c1)[C@H]([C@@H]1CCCN1)OCC2", "note": "[Compound I-5, (2S)-2-((R)-7-fluoroisochroman-1-yl)pyrrolidine]", "AD: ADHD (probability that behavioral signature matches class)": "+ (LOQ ≤ + <5%)", "AG: analgesic (probability that behavioral signature matches class)": "++ (5% ≤ ++ <25%)", "AX: anxiolytic (probability that behavioral signature matches class)": "++ (5% ≤ ++ <25%)", "CE: cognitive enhancer (probability that behavioral signature matches class)": "++ (5% ≤ ++ <25%)", "DP: anti-depressant (probability that behavioral signature matches class)": "++ (5% ≤ ++ <25%)", "HA: hallucinogen (probability that behavioral signature matches class)": "+ (LOQ ≤ + <5%)", "MS: mood stabilizer (probability that behavioral signature matches class)": "++ (5% ≤ ++ <25%)", "PS: anti-psychotic (probability that behavioral signature matches class)": "+++ (25% ≤ +++ <50%)", "SD: sedative hypnotic (probability that behavioral signature matches class)": "+ (LOQ ≤ + <5%)", "UN: uncharacterized CNS activity (probability that behavioral signature matches class)": "+++ (25% ≤ +++ <50%)", "XG: anxiogenic (probability that behavioral signature matches class)": "+ (LOQ ≤ + <5%)"}
{"smiles": "Fc1cccc2c1CCO[C@@H]2[C@H]1CCN1", "note": "[Compound I-96, (R)-2-((S)-5-fluoroisochroman-1-yl)azetidine]", "AD: ADHD (probability that behavioral signature matches class)": "+ (LOQ ≤ + <5%)", "AG: analgesic (probability that behavioral signature matches class)": "+++ (25% ≤ +++ <50%)", "AX: anxiolytic (probability that behavioral signature matches class)": "++ (5% ≤ ++ <25%)", "CE: cognitive enhancer (probability that behavioral signature matches class)": "++ (5% ≤ ++ <25%)", "DP: anti-depressant (probability that behavioral signature matches class)": "+++ (25% ≤ +++ <50%)", "HA: hallucinogen (probability that behavioral signature matches class)": "+ (LOQ ≤ + <5%)", "MS: mood stabilizer (probability that behavioral signature matches class)": "++ (5% ≤ ++ <25%)", "PS: anti-psychotic (probability that behavioral signature matches class)": "+++ (25% ≤ +++ <50%)", "SD: sedative hypnotic (probability that behavioral signature matches class)": "+ (LOQ ≤ + <5%)", "UN: uncharacterized CNS activity (probability that behavioral signature matches class)": "+ (LOQ ≤ + <5%)", "XG: anxiogenic (probability that behavioral signature matches class)": "+ (LOQ ≤ + <5%)"}
{"smiles": "Fc1cccc2c1CCO[C@@H]2[C@@H]1CCN1", "note": "[Compound I-94, (S)-2-((S)-5-fluoroisochroman-1-yl)azetidine]", "AD: ADHD (probability that behavioral signature matches class)": "+ (LOQ ≤ + <5%)", "AG: analgesic (probability that behavioral signature matches class)": "++ (5% ≤ ++ <25%)", "AX: anxiolytic (probability that behavioral signature matches class)": "++ (5% ≤ ++ <25%)", "CE: cognitive enhancer (probability that behavioral signature matches class)": "++ (5% ≤ ++ <25%)", "DP: anti-depressant (probability that behavioral signature matches class)": "+++ (25% ≤ +++ <50%)", "HA: hallucinogen (probability that behavioral signature matches class)": "+ (LOQ ≤ + <5%)", "MS: mood stabilizer (probability that behavioral signature matches class)": "+ (LOQ ≤ + <5%)", "PS: anti-psychotic (probability that behavioral signature matches class)": "+++ (25% ≤ +++ <50%)", "SD: sedative hypnotic (probability that behavioral signature matches class)": "+ (LOQ ≤ + <5%)", "UN: uncharacterized CNS activity (probability that behavioral signature matches class)": "++ (5% ≤ ++ <25%)", "XG: anxiogenic (probability that behavioral signature matches class)": "+ (LOQ ≤ + <5%)"}
{"smiles": "Fc1cccc2c1[C@H]([C@@H]1CCN1)OCC2", "note": "[Compound I-83, (S)-2-((R)-8-fluoroisochroman-1-yl)azetidine]", "AD: ADHD (probability that behavioral signature matches class)": "++ (5% ≤ ++ <25%)", "AG: analgesic (probability that behavioral signature matches class)": "++ (5% ≤ ++ <25%)", "AX: anxiolytic (probability that behavioral signature matches class)": "++ (5% ≤ ++ <25%)", "CE: cognitive enhancer (probability that behavioral signature matches class)": "+++ (25% ≤ +++ <50%)", "DP: anti-depressant (probability that behavioral signature matches class)": "++ (5% ≤ ++ <25%)", "HA: hallucinogen (probability that behavioral signature matches class)": "+ (LOQ ≤ + <5%)", "MS: mood stabilizer (probability that behavioral signature matches class)": "++ (5% ≤ ++ <25%)", "PS: anti-psychotic (probability that behavioral signature matches class)": "+++ (25% ≤ +++ <50%)", "SD: sedative hypnotic (probability that behavioral signature matches class)": "+ (LOQ ≤ + <5%)", "UN: uncharacterized CNS activity (probability that behavioral signature matches class)": "+ (LOQ ≤ + <5%)", "XG: anxiogenic (probability that behavioral signature matches class)": "+ (LOQ ≤ + <5%)"}
{"smiles": "Fc1ccc2c(c1)CCO[C@H]2[C@@H]1CCN1", "note": "[Compound I-90, (S)-2-((R)-6-fluoroisochroman-1-yl)azetidine]", "AD: ADHD (probability that behavioral signature matches class)": "+ (LOQ ≤ + <5%)", "AG: analgesic (probability that behavioral signature matches class)": "++ (5% ≤ ++ <25%)", "AX: anxiolytic (probability that behavioral signature matches class)": "+++ (25% ≤ +++ <50%)", "CE: cognitive enhancer (probability that behavioral signature matches class)": "++ (5% ≤ ++ <25%)", "DP: anti-depressant (probability that behavioral signature matches class)": "+++ (25% ≤ +++ <50%)", "HA: hallucinogen (probability that behavioral signature matches class)": "+ (LOQ ≤ + <5%)", "MS: mood stabilizer (probability that behavioral signature matches class)": "+ (LOQ ≤ + <5%)", "PS: anti-psychotic (probability that behavioral signature matches class)": "++ (5% ≤ ++ <25%)", "SD: sedative hypnotic (probability that behavioral signature matches class)": "++ (5% ≤ ++ <25%)", "UN: uncharacterized CNS activity (probability that behavioral signature matches class)": "++ (5% ≤ ++ <25%)", "XG: anxiogenic (probability that behavioral signature matches class)": "+ (LOQ ≤ + <5%)"}
